Assay: gradient 5% acetonitrile 3 min, to 50% in 2 min, to 85% in 15 min, held 3 min, 100 µL/min
Conditions: column: Zorbax Extend-C18 2.1 x 50 mm; eluents: water / acetonitrile, 0.1% formic acid
In short: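 Data were gathered over 3 months by HPLC coupled to a quadrupole time-of-flight mass spectrometer, operated in positive and negative ionization mode. Mixtures of ~100 pure standards ran on a Zorbax Extend-C18 column (2.1 × 50 mm, 1.8 μm) at 100 μL/min, with water and acetonitrile each containing 0.1% formic acid and dead and dwell volumes of 40 μL and 900 μL. Retention time was read from adduct peaks picked by computer and checked manually.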

| RP-LC retention time [s] | SMILES |
| --- | --- |
| 815 | Cc1cc(C)n2c(Nc3c(C)cccc3C)c(-c3ccc(Cl)cc3)nc2n1 |
| 687 | CC(C)NC(=O)c1cccc(Nc2c(-c3ccc(Cl)cc3)nc3cnccn23)c1 |
| 781 | COC(=O)c1ccc2c(=O)n(-c3cccc(Cl)c3)c(N3CCC(C(N)=O)CC3)nc2c1 |
| 982 | CCn1c(=O)c(N2CCN(C(=O)Nc3cc(Cl)c(OC)cc3OC)CC2)nc2cccnc21 |
| 616 | CC(=O)c1cccc(NC(=O)COc2cc(C)nc(N3CCCC3)n2)c1 |
| 822 | COc1ccc(-n2ccc(=O)c(-c3nc(-c4ccccc4F)no3)n2)cc1 |
| 921 | Cn1nnc2ccc(-c3noc(Cc4cccc(F)c4)n3)cc21 |
| 720 | CCn1ccc(NC(=O)c2ccccc2C)n1 |
| 732 | CCn1cc(CC(=O)NC(C)c2ccc(F)cc2)c2cccnc21 (stereo not given) |
| 1010 | Cc1ccc(N2C(=O)C3N=NN(c4ccccc4)C3C2=O)cc1C (stereo not given) |
| 658 | CCCC(NC(=O)c1ccc(OC)cc1)C(=O)Nc1nc2ccccc2[nH]1 (stereo not given) |
| 641 | CCc1ccc(CNC(=S)Nc2ccc3nc(N4CCN(C)CC4)cc(C)c3c2)cc1 |
| 674 | CC(=O)c1cccc(NC(=O)Cn2cnc3nc4c(cc3c2=O)CCCC4)c1 |
| 832 | O=C(Nc1ccc(OCc2nnc(-c3ccccc3)o2)cc1)c1cnccn1 |
| 727 | COc1ccc(Cl)cc1C(=O)Nc1ccc(-c2cn3ccc(C)nc3n2)cc1 |
| 733 | CCOc1ccc(NC(=O)N2CCN(Cc3nc4ccc(C)cc4o3)CC2)cc1 |
| 981 | CCOC(=O)c1cc2ccsc2n1CC(=O)NCc1ccc(C)cc1 |
| 777 | Cc1cc2c(cc1S(=O)(=O)N1CCCC1C(=O)Nc1ccccc1)OC(C)C(=O)N2 (stereo not given) |
| 784 | Cc1nc(N2CCCC2)c2c(C(=O)Nc3cccc(F)c3)c(C)oc2n1 |
| 956 | Cc1ccc(CNC(=O)N(C)CCc2noc(COc3cccc(C)c3)n2)cc1 |
| 616 | CC(C)CC(=O)Nc1ccc(S(=O)(=O)N2CCC(c3ccncc3)CC2)cc1 |

| RP-LC retention time [s] | SMILES |
| --- | --- |
| 610 | Cc1ccc(-c2nc3cnccn3c2NCCC(=O)O)cc1 |
| 1170 | COc1cccc(Cn2c(=O)c3sccc3n(Cc3nc(-c4ccc(F)c(Cl)c4)no3)c2=O)c1 |
| 980 | Cc1ccc(CNC(=O)c2c(C)sc3ccn(Cc4ccc(F)cc4)c(=O)c23)o1 |
| 1060 | CS(=O)(=O)N1CCC(C(=O)Nc2ccc(C(F)(F)F)cc2)Oc2ccc(Cl)cc21 (stereo not given) |
| 1160 | Cc1cccc(-c2nc(C3CCN(S(=O)(=O)c4ccccc4F)CC3)no2)c1 |
| 687 | O=C(NCCn1c(CCc2ccccc2)nc2cccnc21)c1cccs1 |
| 1270 | CSc1ccc(-c2noc(Cn3cnc4c(cnn4-c4ccc(C)c(Cl)c4)c3=O)n2)cc1 |
| 608 | Cc1ccccc1NC(=O)CN1CCc2[nH]c3c(C)cc(F)cc3c(=O)c2C1 |
| 908 | Cc1cc(C(=O)Nc2cccc3ccccc23)n(-c2ccccc2)n1 |
| 713 | CC1=C(c2ccc(F)cc2)S(=O)(=O)N=C1N1CCCN(C(=O)c2ccccn2)CC1 |
| 643 | COC(=O)c1cnc2nc(C)ccc2c1Nc1cc(OC)c(OC)c(OC)c1 |
| 761 | Cc1ccc(NS(=O)(=O)c2c[nH]c3ncccc23)cc1F |
| 936 | Cc1cccc(S(=O)(=O)N2CCC(C)(C(=O)NCc3ccc(F)cc3)CC2)c1 |
| 648 | Cc1ccn2cc(-c3ccc(NC(=O)c4ccc(F)cc4)cc3)nc2n1 |
| 611 | O=C(NC1CCN(c2cc(-c3ccc(F)cc3)[nH]n2)C1)c1ccncc1 (stereo not given) |
| 1050 | Cc1ccc(Cn2nc3ccc(S(=O)(=O)N4CCc5ccccc5C4)cn3c2=O)cc1 |
| 720 | Cc1noc(C)c1CCC(=O)Nc1ccccc1NC(=O)c1ccsc1 |
| 970 | Cc1ccc(NC(=O)Cn2nc(N3CCSCC3)c3ccccc3c2=O)cc1Cl |
| 1270 | CCCN1C(=O)COc2ccc(-c3noc(/C=C/c4ccccc4OC)n3)cc21 |
| 712 | COc1ccc(NC(=O)Nc2c(-c3ccc(C)cc3)nc3ccccn23)cc1Cl |
| 708 | COc1ccc(NC(=O)N2CCC(n3c(-c4ccco4)nc4cccnc43)C2)cc1 (stereo not given) |

The remaining lines, values behind:

| SMILES | RP-LC retention time [s] |
| --- | --- |
| Cc1cc2nc(C(F)(F)F)c(=O)n(C(C)C(=O)NCCCN3CCN(C)CC3)c2cc1C (stereo not given) | 652 |
| Cc1cc(C)c(C)c(S(=O)(=O)NCC(=O)N2CCN(c3ccccc3)CC2)c1C | 966 |
| O=C(NCC1CCOCC1)c1ccc(Br)cc1 | 708 |
| Cc1nc(C(=O)OCc2cc(-c3cccs3)on2)cs1 | 785 |
| CCC(CO)NCc1ccc(-c2ccc(Cl)cc2Cl)o1 (stereo not given) | 692 |
| Cc1cc(Br)ccc1-c1ccc(CNCCCN(C)C)o1 | 927 |
| Cn1c(=O)n(C)c2cc(N3CCOCC3)c(NC(=O)COc3ccc(Cl)cc3)cc21 | 899 |
| Cc1cc(N2CCCC2)n2nc(CN3CCC4(CC3)OCCO4)nc2n1 | 572 |
| O=C(Nc1cc(F)ccc1F)C1CCN(C(=O)c2cccn2-c2cccnc2)CC1 | 728 |
| O=C(Cc1cccs1)NCCn1ncc2c(=O)n(Cc3ccccc3F)cnc21 | 666 |
| CC(C)n1nc(-c2ccc3oc(N)nc3c2)c2c(N)ncnc21 | 628 |
| COc1cccc(NC(=O)N(C)CC2CCOCC2)c1 | 685 |
| CCN(CCNC(=O)C12CCCC=C1N(Cc1ccccc1)C(=O)CC2)Cc1ccccc1 (stereo not given) | 603 |
| O=S(=O)(NCCc1noc(-c2ccccc2)n1)c1ccc2c(c1)OCCO2 | 883 |
| CN(C)c1ccc(CCNC(=O)C(=O)NCc2ccc3c(c2)OCO3)cc1 | 577 |
| COc1ccc(OC)c(NC(=O)N2CCC(OC3CCN(S(C)(=O)=O)CC3)CC2)c1 | 751 |
| CN1CCCN(C(=O)C2CC(=O)N(c3ccc4c(c3)CCN4C(=O)C3CC3)C2)CC1 (stereo not given) | 564 |
| COc1ccc(-c2nnc(N3CCC(C(=O)NC4CCCCC4)CC3)o2)cc1 | 811 |
| CCOCCCNC(=O)C1CCN(C2=NS(=O)(=O)C(c3ccc(C)c(C)c3)=C2C)CC1 | 786 |
| Cc1cc(C(F)(F)F)nn1CC(=O)NCC1Cn2cccc2C(=O)N1CC(C)C (stereo not given) | 797 |
| CCC(=O)N(C1CCOCC1)C1CCN(S(=O)(=O)c2ccc(F)c(Cl)c2)CC1 | 884 |
| Cc1ccc(CN2CCc3nc(N4CCN(c5ccccc5F)CC4)ncc3C2)s1 | 799 |
| Cn1cc(C(=O)NCc2ccc(N3CCCCC3)cc2)c2cccnc21 | 576 |
| Cc1csc(-c2ccc(N3CCN(C(=O)c4cccs4)CC3)nc2)n1 | 781 |

| SMILES | RP-LC retention time [s] |
| --- | --- |
| CCOCc1nc(C2CCCN(C(=O)NC3CCCC3)C2)no1 (stereo not given) | 766 |
| Cc1csc(-c2cc(S(=O)(=O)N3CCN(C(C)C)CC3)cn2CC(=O)N2CCCCC2)n1 | 688 |
| CC(C)Cn1c(=O)c(C(=O)NCCCc2ccccc2)nc2cccnc21 | 888 |
| Cc1cc(N2CCCCC2)nc(NCCNS(=O)(=O)N(C)C)n1 | 570 |
| CC1CCN(C(=O)c2ccc3c(=O)n4c(nc3c2)CCCC4)CC1 | 707 |
| CN1CCN(C(=O)c2nn(-c3ccc(Cl)cc3)c3c(=O)n(C)cnc23)CC1 | 611 |
| CCOC(=O)C1CCN(C(=O)C2(c3ccc(NS(C)(=O)=O)cc3)CCCCC2)CC1 | 894 |
| Cc1cccc(NC(=O)Cn2cnc3onc(C)c3c2=O)c1C | 754 |
| CCCCC(=O)Nc1ccc2nc(N3CCN(CCC#N)CC3)cc(C(=O)O)c2c1 | 570 |
| CCCOc1nn(CCC)cc1C(=O)N1CCCC1 | 700 |
| COc1cccc(Sc2ccc(N3CCC(C(=O)N4CCN(c5ccccn5)CC4)CC3)nn2)c1 | 616 |
| CC(C)CCNC(=O)C1(C)CCC(=O)N1CCc1c[nH]c2ccccc12 (stereo not given) | 786 |
| CCCNC(=O)C1CCCN(c2ccc(SCC(=O)Nc3cc(OC)cc(OC)c3)nn2)C1 (stereo not given) | 673 |
| CCC(C)NC(=O)C1CCCN(c2nccnc2Sc2ccc(C)cc2)C1 (stereo not given) | 1320 |
| COCCc1noc(C2CN(C(=O)C(C)C)C2)n1 | 621 |
| O=C(CN1C(=O)C(C(=O)N2CCCCC2)Sc2ccccc21)NCCC1=CCCCC1 (stereo not given) | 1120 |
| CCCSCCCNc1nc(-c2nnc(-c3ccccc3)o2)nc2ccccc12 | 1100 |
| O=C(Nc1cccc(F)c1)C1CCCN(S(=O)(=O)c2c[nH]c(C(=O)N3CCCC3)c2)C1 (stereo not given) | 808 |
| CC(C)NC(=O)C1(c2ccc(NS(C)(=O)=O)cc2)CCCCC1 | 782 |
| COc1ccc(N2CCN(c3nc(C(=O)N4CCOCC4)cs3)CC2)cc1 | 716 |
| CC(/C=C/C(=O)NO)=C\C(C)C(=O)c1ccc(N(C)C)cc1 (stereo not given) | 723 |
| CC(C)NCc1ccc(-c2ccccc2)o1 | 612 |
| CC1CCc2onc(C(=O)N3CCN(c4ccccc4)CC3)c2C1 (stereo not given) | 1020 |
| Cc1cc(C)c(C(=O)N2CCCC(C(=O)N3CCN(c4cccc(Cl)c4)CC3)C2)[nH]1 (stereo not given) | 953 |

Source: the METLIN SMRT retention time set (Domingo-Almenara et al. 2019)
